From patent US20010044445A1, “AZOLE INHIBITORS OF CYTOKINE PRODUCTION” (priority 1999, published 2001) come the findings set out here.

Like-named read-outs stand apart in the source and are kept apart here.

The experiment relates to Human peripheral blood mononuclear cells. Put plainly: Human Concanavalin-A Proliferation Assay (Con HU Assay). The experiment is classed as cell-based. Conditions: concanavalin-A stimulated human PBMC; for inhibition at 10 µM / inhibition at 1 µM / inhibition at 100 µM: 72 h, read-out: % Inhibition of proliferation (at concentrations of 1,10, or 100 μm); for inhibition at 10 µM / inhibition at 1 µM / % Inhibition of proliferation (at concentrations of 1,10, or 100 μm) / inhibition at 100 µM: 3 days; for IC50: tritiated thymidine. Here is the method: Human peripheral blood mononuclear cells were cultured in RPMI 1640 medium supplemented with 10 μg/ml gentamicin, 50 μM 2-mercaptoethanol, 1X MEM non-essential amino acids (Sigma Chemical Co., St. Louis, Mo.), 100 U/ml sodium penicillin G, 100 μg/ml streptomycin sulfate, 2 mM L-glutamine, 1 mM sodium pyruvate (Life Technologies, Grand Island, N.Y.) and 10% fetal bovine serum (Hyclone, Logan, Utah) at 37° C. with 5% CO2.
The procedure in Current Protocols in Immunology, Volume 1, Published by the Greene Publishing Associates and John Wiley & Sons, Inc, Edited by Richard Coico, 1994, hereby incorporated by reference, was followed. Briefly, 50 ml of blood from human volunteers was collected in heparinized syringes and mixed. Blood was diluted 1:1 in Dulbecco's phosphate buffered saline (D-PBS) (Life Technologies, Grand Island, N.Y.) and mixed. PBS-blood mixture was overlaid into 50 ml centrifuge tubes containing 15 ml Histopaque 1077 (Sigma Chemical Co., St. Louis, Mo.) and centrifuged at 500 X G for 30 minutes at room temperature. Cells at the interface from each Histopaque tube were removed and mixed with 5 ml of D-PBS. Each cell suspension was diluted to 50 ml with D-PBS, mixed and centrifuged at 400 X G for 15 minutes at room temperature. After most of the supernatant was removed, cells were resuspended to 40 ml with D-PBS per tube (2 tubes per donor). Cells were centrifuged at 400 X G for 10 minutes at room temperature. Pellets were resuspended in 10 ml of supplemented RPMI 1640 and cell number determined with a Coulter counter. Cells were diluted to a concentration of 0.5×10^6 cells per mL.
The procedure in Current Protocols in Immunology, Volume 1, Published by the Greene Publishing Associates and John Wiley & Sons, Inc, Edited by Richard Coico, 1994, hereby incorporated by reference, was followed. Briefly, test compounds were added to appropriate wells on 96-well tissue culture plates (Corning Glass Works, Corning, N.Y.) in 20 µl of supplemented RPMI 1640. Human peripheral blood mononuclear cells were added to each well in 100 μl volumes (final cell concentration equal to 50,000 cells per well). After 15 minutes, 100 μl of 5 μg/ml concanavalin-A (Sigma Chemical Co., St. Louis, Mo.) in supplemented RPMI 1640 was added to a final concentration of 2.5 μg/ml. Plates were incubated for 3 days at 37° C. with 5% CO2. On day 3, plates were pulsed with 0.5 μCi/well tritiated thymidine (New England Nuclear, Boston, Mass.). After 6 hours, plates were harvested on a Tomatec 96-well havester (Orange, Conn.). Glass filter mats were counted on a Matrix 9600 direct beta counter (Packard, Meriden, Conn.).

The mark [1] stands for this setting: Homo sapiens, PBMC, concentration 10 μm (in parentheses in the cell).
Where [2] appears, read: Homo sapiens, PBMC, concentration 1 μm (in parentheses in the cell).
[3] abbreviates: concentration 1 μm (in parentheses in the cell).
[4] abbreviates: concentration 10 μm (in parentheses in the cell).
[5] abbreviates: Homo sapiens, PBMC, concentration 100 μm (in parentheses in the cell).
Setting [6] is: concentration 100 μm (in parentheses in the cell).

Broadly, the IC50 is the concentration that inhibits the measured activity by half. Low readings indicate greater potency in that assay, high ones weaker potency in that assay. Turning to `O=C(Nc1ccc(-n2nc(C(F)(F)F)cc2C(F)(F)F)cc1)c1cncc(Br)c1` [Example 256, N-[4-[3,5-bis(trifluoromethyl)-1H-pyrazol-1-yl]phenyl]-5-bromo-3-pyridinecarboxamide], the inhibition at 10 µM under setting [1] worked out at 100%. The compound also yielded a half-maximal inhibitory concentration (IC50) (Homo sapiens, PBMC) of 250 nM.

Turning to `CC1CCCCC1C(=O)Nc1ccc(-n2nc(C(F)(F)F)cc2C(F)(F)F)cc1` (stereo not drawn) [Example 27, N-[4-[3,5-bis(trifluoromethyl)-1H-pyrazol-1-yl]phenyl]-2-methylcyclohexanecarboxamide], the inhibition at 10 µM under setting [1] was found to be 100%. For the same compound, under “Homo sapiens, PBMC”, half-maximal inhibition (IC50) was put at 299 nM.

`O=C(Nc1ccc(-n2nc(C(F)(F)F)cc2C(F)(F)F)cc1)c1ccc(Br)cc1Cl` [Example 217, N-[4-[3,5-bis(trifluoromethyl)-1H-pyrazol-1-yl]phenyl]-4-bromo-2-chlorobenzamide]: the inhibition at 10 µM under setting [1] came to 100%. This compound came in with an IC50 (Homo sapiens, PBMC) of 218 nM.

Under “Homo sapiens, PBMC”, `O=C(Nc1ccc(-n2nc(C(F)(F)F)cc2C(F)(F)F)nc1)c1ccccc1F` [Example 292, N-(6-(3,5-bis(trifluoromethyl)-1H-pyrazol-1-yl)-3-pyridinyl)-2-fluorobenzamide] returned an IC50 of 258 nM.

As for `CN(C(=O)c1ccc([N+](=O)[O-])cc1Cl)c1ccc(-n2nc(C(F)(F)F)cc2C(F)(F)F)cc1` [Example 81, N-[4-[3,5-bis(trifluoromethyl)-1H-pyrazol-1-yl]phenyl]-2-chloro-4-nitro-N-methylbenzamide], the inhibition at 1 µM under setting [2] stood at 30%.

Compound `Nc1cnccc1C(=O)Nc1ccc(-n2nc(C(F)(F)F)cc2C(F)(F)F)cc1` [Example 290, 3-amino-N-(4-(3,5-bis(trifluoromethyl)-1H-pyrazol-1-yl)phenyl)isonicotinamide] displayed an IC50 (Homo sapiens, PBMC) of 373 nM. In other words, the sub-micromolar range.

For `O=C(Nc1ccc(-n2nc(-c3cncc(Br)c3)cc2OC(F)F)cc1)c1ccncc1F` [Example 339, N-(4-(3-(5-bromo-3-pyridinyl)-5-(difluoromethoxy)-1H-pyrazol-1-yl)phenyl)-3-fluoroisonicotinamide], the IC50 (Homo sapiens, PBMC) is 369 nM.

`CC1(C)C(C(=O)Nc2ccc(-n3nc(C(F)(F)F)cc3C(F)(F)F)cc2)C1(C)C` [Example 2, N-[4-[3,5-bis(trifluoromethyl)-1H-pyrazol-1-yl]phenyl]-2.2.3.3-tetramethylcyclopropanecarboxamide]: under setting [3], the “% Inhibition of proliferation (at concentrations of 1,10, or 100 μm)” value (“% Inhibition of proliferation” for short) is 1(1) %.

As for `O=C(Nc1ccc(-n2nc(C(F)(F)F)cc2C(F)(F)F)cc1)c1cc([N+](=O)[O-])c(Cl)c([N+](=O)[O-])c1Cl` [Example 233, N-4-[3,5-bis(trifluoromethyl)-1H-pyrazol-1-yl]phenyl-2,4-dichloro-3,5-dinitrobenzamide], the IC50 was 340 nM. The “% Inhibition of proliferation” value under setting [4] is given as 100(10) %.

Turning to `O=C(Nc1ccc(-n2nc(C(F)(F)F)cc2C(F)(F)F)cc1)c1cc(Br)c(Br)s1` [Example 263, N-[4-[3,5-bis(trifluoromethyl)-1H-pyrazol-1-yl]phenyl]-2,3-dibromo-5-thiophenecarboxamide], under setting [1], the inhibition at 10 µM turned out to be 100%. Where the note is “Homo sapiens, PBMC”, this compound displayed an IC50 of 2930 nM.

Compound `Cc1nc(C)c(-c2cc(C(F)(F)F)n(-c3ccc(NC(=O)c4ccncc4F)cc3)n2)s1` [Example 343, N-(4-(3-(2,4-dimethyl-1,3-thiazol-5-yl)-5-(trifluoromethyl)-1H-pyrazol-1-yl)phenyl)-3-fluoroisonicotinamide] returned an IC50 (Homo sapiens, PBMC) of 250 nM.

Compound `NCc1ccc(C(=O)Nc2ccc(-n3nc(C(F)(F)F)cc3C(F)(F)F)cc2)c(Cl)c1` [Example 294, 4-(aminomethyl)-N-(4-(3,5-bis(trifluoromethyl)-1H-pyrazol-1-yl)phenyl)-2-chlorobenzamide] came in with an IC50 (Homo sapiens, PBMC) of 299 nM.

For the compound `O=C(Nc1ccccc1Br)c1ccc(-n2nc(C(F)(F)F)cc2C(F)(F)F)cc1` [Example 192, 4-[3,5-Bis(trifluoromethyl)-1H-pyrazol-1-yl]-N-(2-bromophenyl)benzamide], under setting [2], the inhibition at 1 µM was 10%.

Take `N#Cc1cc(-c2nccs2)nn1-c1ccc(NC(=O)c2ccncc2F)cc1` [Example 341, N-(4-(5-cyano-3-(1,3-thiazol-2-yl)-1H-pyrazol-1-yl)phenyl)-3-fluoroisonicotinamide]: the IC50 is 191 nM.

Take `O=C(Nc1ccc(-n2nc(C(F)(F)F)cc2C(F)(F)F)cc1)c1cccc(Br)c1` [Example 144, N-[4-[3,5-bis(trifluoromethyl)-1H-pyrazol-1-yl]phenyl]-3-bromobenzamide]: the inhibition at 100 µM under setting [5] is 100%. Where the note is “Homo sapiens, PBMC”, the IC50 came to 240 nM.

Regarding `O=C(Nc1ccc(-n2nc(C(F)(F)F)cc2C(F)(F)F)cc1)C1CCCCC1` [Example 124, N-[4-[3,5-bis(trifluoromethyl)-1H-pyrazol-1-yl]phenyl]cyclohexanecarboxmide], the IC50 came out at 285 nM. Also, the “% Inhibition of proliferation” value under setting [6] is listed as 99(100) %.

As to `O=C(Nc1ccc(-n2nc(C(F)(F)F)cc2Br)cc1)c1ccncc1F` [Example 332, N-(4-(5-bromo-3-(trifluoromethyl)-1H-pyrazol-1-yl)phenyl)-3-fluoroisonicotinamide], where the note is “Homo sapiens, PBMC”, it took 44 nM to reach half-maximal inhibition (IC50).

For the compound `O=C(Nc1ccc(-n2nc(C(F)(F)F)cc2C(F)(F)F)cc1)c1sccc1Br` [Example 161, N-[4-[3,5-bis(trifluoromethyl)-1H-pyrazol-1-yl]phenyl]-3-bromo-2-thiophenecarboxamide], under setting [5], the inhibition at 100 µM was 99%. Besides, the midpoint of inhibition (Homo sapiens, PBMC), the IC50, lay at 231 nM.

`O=C(Nc1ccc(-n2nc(C(F)(F)F)cc2C(F)(F)F)cc1)C1C=CCCC1` (stereo not drawn) [Example 53, N-[4-[3,5-bis(trifluoromethyl)-1H-pyrazol-1-yl]phenyl]-2-cyclohexane-1-carboxamide]: the IC50 was 202 nM. The “% Inhibition of proliferation” value under setting [6] is listed as 99(100) %.

`O=C(Nc1ccc(-n2nc(C(F)(F)F)cc2C(F)(F)F)cc1)c1cc([N+](=O)[O-])cc([N+](=O)[O-])c1` [Example 134, N-[4-[3,5-bis(trifluoromethyl)-1H-pyrazol-1-yl]phenyl]-3,5-dinitrobenzamide] registered an IC50 of 2770 nM. The inhibition at 100 µM under setting [6] is 100%.

With `COc1cc(SC)ccc1C(=O)Nc1ccc(-n2nc(C(F)(F)F)cc2C(F)(F)F)cc1` [Example 179, N-[4-[3,5-bis(trifluoromethyl)-1H-pyrazol-1-yl]phenyl]-2-methoxy-4-(methythio)benzamide], the IC50 was 8870 nM. Also, the “% Inhibition of proliferation” value under setting [4] is given as 47(10) %.

Consider `O=C(Nc1ccc(-n2nc(C(F)(F)F)cc2C(F)(F)F)cc1)c1ccc(Br)o1` [Example 251, N-[4-[3,5-bis(trifluoromethyl)-1H-pyrazol-1-yl]phenyl]-5-bromo-2-furancarboxamide], for which the inhibition at 1 µM under setting [2] was 50%.

As for `O=C(Nc1ccc(-n2nc(C(F)(F)F)cc2C(F)(F)F)cc1)c1cnccn1` [Example 172, N-[4-[3,5-Bis(trifluoromethyl)-1H-pyrazol-1-yl]phenyl]pyazinecarboxamide], the “% Inhibition of proliferation” value under setting [3] was 48(1) %.

Regarding `N#Cc1cc(-c2ccccn2)nn1-c1ccc(NC(=O)c2ccncc2F)cc1` [Example 330, N-(4-(5-cyano-3-(2-pyridinyl)-1H-pyrazol-1-yl)phenyl)-3-fluoroisonicotinamide], the half-maximal inhibitory concentration (IC50) (Homo sapiens, PBMC) was found to be 169 nM. This counts as sub-micromolar.

`CSc1cc(C(F)(F)F)nn1-c1ccc(NC(=O)c2ccccc2F)cc1` [Example 309, 2-fluoro-N-(4-(5-(methylsulfanyl)-3-(trifluoromethyl)-1H-pyrazol-1-yl)phenyl)benzamide]: the IC50 (Homo sapiens, PBMC) amounted to 32 nM.
